Test results: patent US4015974A, “Amido phosphorothiolates” (priority 1972, dated 1977)
Values after ≈ are worked out from the molar mass of the structure shown.

What was measured:
Format in all cases: in vivo
[1] = system: barnyard grass (Echinochloa crus-galli); test: Water application, herbicidal effect on barnyard grass (Table 2); parameters: key: 0: not damaged; 5: completely killed; settings: 25 days, score 0-5
In short: (§1)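 Scores (0–5) taken 25 days post-treatment. Wettable-powder formulations were applied into standing water over paddy soil holding 3-leaf-stage transplanted rice, sown Echinochloa and naturally emerging monochoria, false pimpernel and toothcup.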

[2] = system: broad-leaved weeds, e.g., monochoria, false pimpernel and toothcup; test: Water application, herbicidal effect on broad-leaved weeds (Table 2); parameters: key: 0: not damaged; 5: completely killed; settings: 25 days, score 0-5
In short: as §1

rice = test: Water application, phytotoxicity on rice (Table 2); parameters: key: 0: no effect; 1: very slightly affected; 2: slightly affected; 3: moderately affected; 4: considerably affected; 5: completely killed; settings: 25 days, score 0-5
In short: as §1

nematode = test: Effect on nematode (Table 7); parameters: tested at 500 ppm; settings: 500 p.p.m., 24 hours
Protocol: 0.5 ml. of a nematode-containing aqueous solution separated from food according to Baermann's method was placed in a test tube with ground stopper containing 0.5 ml. of an aqueous dilute solution of each emulsifiable concentrates of the present compounds. The concentration of the active ingredient in the mixture was adjusted to 500 p.p.m. After 24 hours, the death and alive were observed microscopically to calculate the mortality.

[3] = system: large crabgrass (Digitaria sanguinalis); test: Pre-emergence application, herbicidal effect on large crabgrass (Table 1); parameters: key: 0: not damaged; 5: completely killed; settings: 20 days after application, score 0-5
In short: (§2)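 Scores run from 0 (undamaged) to 5 (fully killed), read 20 days post-treatment. Compounds were applied as water-diluted wettable powders to soil over freshly covered seeds in ~10 cm pots, with plants kept in a greenhouse.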

[4] = system: redroot pigweed (Amaranthus retroflexus); test: Pre-emergence application, herbicidal effect on redroot pigweed (Table 1); parameters: key: 0: not damaged; 5: completely killed; settings: 20 days after application, score 0-5
In short: as §2

[5] = system: tobacco cut worm (Spondoptera litura); test: Lethal effect on tobacco cut worm (Table 5); settings: tobacco cutworm, larvae on chinese cabbage leaves, 48 h
Protocol: The present compounds of an emulsifiable concentrate type were applied to leaves of chinese cabbage in the form of an 1000 fold dilute solution. After air-drying, third to fourth instar larvae of tobacco cut worm were released and after 48 hours the death and alive were observed.

[6] = system: common purslane (Portulaca oleracea); test: Pre-emergence application, herbicidal effect on common purslane (Table 1); parameters: key: 0: not damaged; 5: completely killed; settings: 20 days after application, score 0-5
In short: as §2

[7] = system: barnyard grass (Echinochloa crus-galli); test: Pre-emergence application, herbicidal effect on barnyard grass (Table 1); parameters: key: 0: not damaged; 5: completely killed; settings: 20 days after application, score 0-5
In short: as §2

radish = test: Pre-emergence application, herbicidal effect on radish (Table 1); parameters: key: 0: not damaged; 5: completely killed; settings: 20 days after application, score 0-5
In short: as §2

[8] = system: common lambsquarter (Chenopodium album); test: Pre-emergence application, herbicidal effect on common lambsquarter (Table 1); parameters: key: 0: not damaged; 5: completely killed; settings: 20 days after application, score 0-5
In short: as §2

[9] = system: tobacco cut worm (Spodoptera litura); test: Field test, tobacco cut worm on cabbage (Table 8); settings: 3% dust, 5 kg./10 a., after 7 days, on 20 cabbages
Text: (§3) A 3% dust of each compound of the present invention was applied, in a proportion of 5 kg./10 a., to the field of cabbage where a large number of tobacco cut worm and diamond-back moth were generated, After 7 days, 20 cabbages were pulled out and the number of insects thereon were checked.

[10] = system: carmine mite (Tetranychus telavius); test: Lethal effect on carmine mite, leaf dipping (Table 3); settings: foliar, 48 h
In short: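 Kidney bean leaves (2-leaf stage) infested with adult mites dipped 1 min in aqueous wettable-powder solutions. Mortality counted microscopically after 48 h; LC50 derived from mortality.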

[11] = system: diamond-back moth (Plutella maculipennis); test: Field test, diamond-back moth on cabbage (Table 8); settings: 3% dust, 5 kg./10 a., after 7 days, on 20 cabbages
Text: as §3

Structure (SMILES)	Herbicidal effects, barnyard grass ([1]; 10 g/a)	Herbicidal effects, barnyard grass ([1]; 20 g/a)	Herbicidal effects, barnyard grass ([1]; 40 g/a)	Herbicidal effects, broad-leaved weeds ([2]; 10 g/a)	Herbicidal effects, broad-leaved weeds ([2]; 20 g/a)	Herbicidal effects, broad-leaved weeds ([2]; 40 g/a)	Phytotoxicity on rice (rice; 10 g/a)	Phytotoxicity on rice (rice; 20 g/a)	Phytotoxicity on rice (rice; 40 g/a)	Mortality (nematode) [%]	Herbicidal effect, large crabgrass ([3]; 10 g./a.)	Herbicidal effect, large crabgrass ([3]; 20 g./a.)	Herbicidal effect, large crabgrass ([3]; 40 g./a.)	Herbicidal effect, redroot pigweed ([4]; 10 g./a.)	Herbicidal effect, redroot pigweed ([4]; 20 g./a.)	Herbicidal effect, redroot pigweed ([4]; 40 g./a.)	Mortality [5] [%]	Herbicidal effect, common purslane ([6]; 10 g./a.)	Herbicidal effect, common purslane ([6]; 20 g./a.)	Herbicidal effect, common purslane ([6]; 40 g./a.)	also measured
CCCSP(=O)(OCC)SCC(=O)N1CCCCC1C (stereo not shown) [Compound 2, O-ethyl-S-n-propyl-S(2-methylpiperidinocarbomoylmethyl)phosphorodithiolate]	5	5	5	5	5	5	0	1	1	100	5	5	5	5	5	5	100	5	5	5	Herbicidal effect, barnyard grass ([7]; 10 g./a.): 5; Herbicidal effect, barnyard grass ([7]; 20 g./a.): 5; Herbicidal effect, barnyard grass ([7]; 40 g./a.): 5; Herbicidal effect, radish (radish; 10 g./a.): 0; Herbicidal effect, radish (radish; 20 g./a.): 0; Herbicidal effect, radish (radish; 40 g./a.): 1; Herbicidal effect, common lambsquarter ([8]; 10 g./a.): 5; Herbicidal effect, common lambsquarter ([8]; 20 g./a.): 5; Herbicidal effect, common lambsquarter ([8]; 40 g./a.): 5; Number of insects, tobacco cut worm [9]: 0; LC50 [10]: 4.6 µg/mL (≈ 13.6 µM); Number of insects, diamond-back moth [11]: 8
CCOP(=O)(SCC(=O)N1CCCCC1C)SC(C)C (stereo not shown) [Compound 3]	5	5	5	5	5	5	0	0	0	100	5	5	5	4	5	5	83.3	5	5	5	Herbicidal effect, barnyard grass ([7]; 10 g./a.): 5; Herbicidal effect, barnyard grass ([7]; 20 g./a.): 5; Herbicidal effect, barnyard grass ([7]; 40 g./a.): 5; Herbicidal effect, radish (radish; 10 g./a.): 0; Herbicidal effect, radish (radish; 20 g./a.): 0; Herbicidal effect, radish (radish; 40 g./a.): 0; Herbicidal effect, common lambsquarter ([8]; 10 g./a.): 5; Herbicidal effect, common lambsquarter ([8]; 20 g./a.): 5; Herbicidal effect, common lambsquarter ([8]; 40 g./a.): 5; Number of insects, tobacco cut worm [9]: 1; LC50 [10]: 18.5 µg/mL (≈ 54.5 µM); Number of insects, diamond-back moth [11]: 12
